# Assay results reported in article PMC7285485, “Antifungal and Antibiofilm Activities and the Mechanism of Action of Repeating Lysine-Tryptophan Peptides against Candida albicans” (Microorganisms, 2020).
# Where two headings read alike, the source gives them in different places. Ends that are not written are not given here. Peptide text beside a SMILES is read from it.
# Assays:
# [1] = test system: C. albicans (KCTC 7270); experiment: microbe, parasite or virus in culture; assay type: cell-based, Candida albicans; settings: YPD/PBS, 24 to 30 h, 28 °C, read-out: Minimum Inhibitory Concentrations
# Protocol: (§1) The fungal strains C. albicans (KCTC 7270), C. catenulate (7642), C. intermidia (7234), C. rugosa (7324), C. glabrata (7219) and C. melibiosica (KCTC 7631) were cultured at 28 °C in appropriate media. Fungal cells (final concentration 2 × 10^4 cells/ mL) in 50 μL of YPD media (dextrose 2%, peptone 1% and yeast extract 0.5%) were seeded in each well of a microtiter plate containing 50 μL of two-fold serially diluted peptides in phosphate buffered saline. After incubation for 24 to 30 h at 28 °C, the lowest concentration of the peptides inhibiting the growth of the fungi was microscopically determined to be the minimum inhibitory concentrations (MICs). The effect of salt concentration on the antifungal activity of the peptides was tested by determining the MICs in the presence of NaCl and MgCl2. Fixed concentrations of NaCl (50, 100 and 150 mM) or MgCl2 (1, 2 and 5 mM) were added to the sodium phosphate buffer (pH 7.2). The effect of pH on the antifungal activity of the peptides was tested by determining peptide MICs in the presence of sodium phosphate buffer at a variety of pH values.
# [2] = test system: C. albicans (CCARM 14001); experiment: microbe, parasite or virus in culture; assay type: cell-based, Candida albicans; settings: fluconazole-resistant strain CCARM 14001, 24 to 30 h, 28 °C, read-out: Minimum Inhibitory Concentrations
# [3] = test system: C. albicans (CCARM 14007); experiment: microbe, parasite or virus in culture; assay type: cell-based, Candida albicans; settings: read-out: Minimum Inhibitory Concentrations
# [4] = test system: C. albicans (CCARM 140020); experiment: microbe, parasite or virus in culture; assay type: cell-based, Candida albicans; settings: read-out: Minimum Inhibitory Concentrations
# [5] = test system: C. catenulate; experiment: microbe, parasite or virus in culture; assay type: cell-based, Candida catenulate; settings: read-out: Minimum inhibitory concentration
# Protocol: as §1
# [6] = test system: C. rugosa; experiment: microbe, parasite or virus in culture; assay type: cell-based, Candida rugosa; settings: read-out: Minimum inhibitory concentration
# Protocol: as §1
# [7] = test system: C. melibiosica; experiment: microbe, parasite or virus in culture; assay type: cell-based, Candida melibiosica; settings: read-out: Minimum inhibitory concentration
# Protocol: as §1
# [8] = test system: C. glabrata; experiment: microbe, parasite or virus in culture; assay type: cell-based, Candida glabrata; settings: read-out: Minimum inhibitory concentration
# Protocol: as §1
# [9] = test system: C. intermedia; experiment: microbe, parasite or virus in culture; assay type: cell-based, Candida intermedia; settings: read-out: Minimum inhibitory concentration
# Protocol: as §1
# [10] = test system: red blood cells; settings: ref [35], cited from earlier work; for Hemolysis: red blood cells, 200 µM peptide
# Text: Furthermore, it maintained its antifungal activity in physiological salt concentrations and at low pH values.
# [11] = test system: HaCaT (human keratinocyte) cells; experiment: Cytotoxicity, MTT assay; assay type: cell-based; settings: 24 h
# Protocol: We examined the cytotoxic effects of the peptides using HaCaT (human keratinocyte) cells, which were cultured in Dulbecco’s modified Eagle medium (DMEM) supplemented with antibiotics (100 U/mL penicillin, 100 µg/mL streptomycin) and 10% fetal calf serum at 37 °C in a humidified chamber with atmosphere containing 5% CO2. To measure viable cells and growth inhibition, an MTT colorimetric assay was used. A total of 4 × 10^3 cells was seeded per well into a 96-well plate incubated at 37 °C for 24 h. The next day, cells from plates were treated with various concentrations of the tested peptides. After 24 h incubation at 37 °C, MTT (10 μL) was added at a concentration of 5 mg/mL to each well. The culture supernatants were discarded after a further 4 h, and the remaining precipitate was dissolved by the addition of 100 μL of DMSO into the wells. Absorbance was then measured at a wavelength of 570 nm using an EL800 reader (Bio-Tek instruments, Inc., Winooski, VT, USA).
# [12] = Calcein leakage from eukaryotic membrane mimetic liposomes; settings: 2.5 μM lipid, peptide 0.0–0.25 μΜ, 25 min, 25 °C; 100% = 0.1% Triton X-100
# Protocol: (§2) Calcein-entrapped LUVs composed of PE–PC–PI–ergosterol (5:4:1:2, w/w/w/w) or PC–CH–SM (1:1:1, w/w/w) were prepared by mixing the dried lipid in buffer solution (containing 70 mM calcein, PBS, pH 7.4). The suspension was freeze-thawed in liquid nitrogen for nine cycles and then extruded through two stacked […] pore-size polycarbonate filters for 16 times using an Avanti Mini-Extruder (Avanti Polar Lipids Inc., Alabaster, AL, USA). Vesicles containing entrapped calcein were separated from free calcein by gel filtration chromatography on a Sephadex G-50 column. Entrapped LUVs in a suspension containing 2.5 μM lipids were then incubated with various concentrations of the peptide (0.0–0.25 μΜ) for 25 min. The release of calcein fluorescence was followed using a spectrofluorometer (Perkin-Elmer LS55, Mid Glamorgan, UK) with appropriate wavelengths (excitation, 480 nm; and emission, 520 nm). […] Spontaneous leakage was determined to be negligible on this timescale. […] The percentage of calcein release was calculated according to the following equation [41]:Release (%) = 100 × (F − Fo)/(Ft − Fo) (Ex. 480 nm and Em. 520 nm)(1) where F represent the fluorescence intensity before the addition of the detergent, Ft represents the fluorescence intensity after the addition of the detergent and Fo represents the fluorescence of the intact vesicles.
# [13] = Calcein leakage from fungal membrane mimetic liposomes; settings: 2.5 μM lipid, peptide 0.0–0.25 μΜ, 25 min, 25 °C; 100% = 0.1% Triton X-100; highest P/L ratio tested
# Protocol: as §2
# [14] = test system: C. albicans; experiment: SYTOX Green membrane permeabilization; assay type: cell-based, Candida albicans; settings: 2 × 10^7 cells/mL, 1 µM SYTOX Green, followed for 120 min
# Protocol: Membrane permeabilization of C. albicans was studied using the fluorescent dye SYTOX Green (Molecular Probes, Eugene, OR, USA). Fungal cells were grown to mid-logarithmic growth phase then centrifuged, washed and resuspended in PBS. Cells were suspended in PBS (2 × 10^7 cells/mL) and incubated with 1 µM SYTOX Green for 15 min in the dark prior to the influx assay. At 2–3 min after initiating data collection, 1/2× or 1× MIC peptides were added to the cell suspensions. Due to the binding of the dye to intracellular DNA, the increases in SYTOX Green fluorescence was measured for 120 min (excitation and emission wavelengths were 485 nm and 520 nm, respectively). Lysis of the cells in Triton X-100 (0.1%) or melittin gave maximum fluorescence.
# [15] = test system: C. albicans; experiment: Fluorescence microscopy of PI cell permeabilization; assay type: cell-based, Candida albicans; settings: 8 μM KW4 or 4 μM melittin, 10, 20 and 30 min, 28 °C
# Protocol: The cell permeability was monitored using the DNA-staining fluorescent probe PI as previously described. For this experiment, C. albicans cells were grown in YPD broth with shaking at 200 rpm overnight at 28 °C. Cells were harvested by centrifugation (4000 rpm for 10 min), washed and suspended in PBS to yield 2 × 10^6 cells/mL; 100 μL of C. albicans suspensions (2 × 10^6 cells/mL) were incubated with 5 μL from respective peptide aqueous stock solutions to yield a final peptide concentration of 8 μM KW4 peptide or 4 μM melittin (as a control peptide) for 10, 20 and 30 min at 28 °C. Next, PI was added to each sample at a final concentration of 1 μg/mL and the plate was incubated at 28 °C for 5 min. The effects of the peptides on C. albicans were visualized by the EVOS FL Auto 2 imaging system (Invitrogen, Waltham, MA, USA). Cells without added peptide served as a control.
# [16] = test system: RNA obtained from C. albicans; experiment: RNA gel retardation assay; assay type: binding, Candida albicans; settings: Supplementary Figure S2
# Protocol: Briefly, RNA was extracted from C. albicans using the TRI reagent (Molecular Research Center, Cincinnati, OH, USA) according to the manufacturer’s instructions. Purified RNA was collected and resuspended in RNAse-free water. Then, the yeast RNA (10 µg) was mixed with peptide at different concentrations, 2.5–30 µg in 15 µL of 10 mM Tris, 1 mM EDTA buffer (pH 8.0). After 10 min incubation at room temperature, the solution was subjected to electrophoresis on a 1% agarose gel in Tris Borate EDTA (TBE) buffer. Gel retardation was visualized under UV illumination using a Bio-Rad Gel Documentation system.
compound,measurement,setting,value
"OC(Cn1cncn1)(Cn1cncn1)c1ccc(F)cc1F [Fluconazole, fluconazole, reference compound]",MIC,"[1]; Candida albicans, KCTC7270, 2 × 10^4 cells/mL",16 µM
same,MIC,"[2]; Candida albicans, CCARM14001",> 128 µM
same,MIC,"[3]; Candida albicans, CCARM14007, fluconazole-resistant strain CCARM 14007, 24 to 30 h, 28 °C",> 128 µM
same,MIC,"[4]; Candida albicans, CCARM140020, fluconazole-resistant strain CCARM 140020, 24 to 30 h, 28 °C",> 128 µM
same,MIC,"[5]; Candida, C. catenulate",16 µM
same,MIC,"[6]; Diutina rugosa, C. rugosa",16 µM
same,MIC,"[7]; Helenozyma melibiosica, C. melibiosica",16 µM
same,MIC,"[8]; Nakaseomyces glabratus, C. glabrata",8 µM
same,MIC,"[9]; Sungouiella intermedia, C. intermedia",16 µM
"NCCCC[C@H](NC(=O)[C@H](Cc1c[nH]c2ccccc12)NC(=O)[C@@H](N)CCCCN)C(=O)N[C@@H](Cc1c[nH]c2ccccc12)C(N)=O [KW2, KWKW-NH2] (H-KWKW-NH2)",MIC,[2],>128 µM
same,MIC,[5],> 128 µM
same,MIC,[6],> 128 µM
same,MIC,[7],> 128 µM
same,MIC,[8],> 128 µM
same,MIC,[9],> 128 µM
same,Hemolysis,[10],0%
"CC[C@H](C)[C@H](NC(=O)CN)C(=O)NCC(=O)N[C@@H](C)C(=O)N[C@H](C(=O)N[C@@H](CC(C)C)C(=O)N[C@@H](CCCCN)C(=O)N[C@H](C(=O)N[C@@H](CC(C)C)C(=O)N[C@H](C(=O)N[C@H](C(=O)NCC(=O)N[C@@H](CC(C)C)C(=O)N1CCC[C@H]1C(=O)N[C@@H](C)C(=O)N[C@@H](CC(C)C)C(=O)N[C@H](C(=O)N[C@@H](CO)C(=O)N[C@@H](Cc1c[nH]c2ccccc12)C(=O)N[C@H](C(=O)N[C@@H](CCCCN)C(=O)N[C@@H](CCCNC(=N)N)C(=O)N[C@@H](CCCCN)C(=O)N[C@@H](CCCNC(=N)N)C(=O)N[C@@H](CCC(N)=O)C(=O)N[C@@H](CCC(N)=O)C(N)=O)[C@@H](C)CC)[C@@H](C)CC)[C@@H](C)O)[C@@H](C)O)C(C)C)C(C)C [Melittin, melittin, reference compound]",MIC,[1]; 2 × 10^4 cells/mL,4 µM
same,MIC,[2],16 µM
same,MIC,"[3]; fluconazole-resistant strain CCARM 14007, 24 to 30 h, 28 °C",8 µM
same,MIC,"[4]; fluconazole-resistant strain CCARM 140020, 24 to 30 h, 28 °C",8 µM
same,MIC,[5]; C. catenulate,8 µM
same,MIC,[6]; C. rugosa,8 µM
same,MIC,[7]; C. melibiosica,8 µM
same,MIC,[8]; C. glabrata,4 µM
same,MIC,[9]; C. intermedia,8 µM
same,Cytotoxicity against HaCaT cells,[11]; 12.5 μM,100%
same,Cell survival,"[11]; HaCaT cells, 200 µM peptide",0%
same,Calcein leakage from PC–CH–SM liposomes,[12],90%
same,Calcein leakage from PE–PC–PI–ergosterol liposomes,[13],80%
same,Time to complete membrane permeabilization (SYTOX green),[14],≤ 35 min
same,PI uptake seen by fluorescence microscopy,[15],allowed the uptake of PI
"KWKWKW-NH2 [KW3, KWKWKW-NH2]",MIC,[2],>128 µM
same,MIC,[5],16 µM
same,MIC,[6],32 µM
same,MIC,[7],32 µM
same,MIC,[8],32 µM
same,MIC,[9],32 µM
same,Hemolysis,[10],0%
KWKWKWKW-NH2 [KW4],MIC,[2],32 µM
same,MIC,[3]; CCARM 14007,32 µM
same,MIC,[4]; CCARM 140020,32 µM
same,MIC,[5],8 µM
same,MIC,[6],8 µM
same,MIC,[7],8 µM
same,MIC,[8],8 µM
same,MIC,[9],8 µM
same,Hemolysis,[10],8%
same,Hemolytic activity,[10],no hemolytic activity
KWKWKWKWKW-NH2 [KW5],MIC,[2],8 µM
same,MIC,[3]; CCARM 14007,16 µM
same,MIC,[4]; CCARM 140020,8 µM
same,MIC,[5],8 µM
same,MIC,[6],8 µM
same,MIC,[7],8 µM
same,MIC,[8],4 µM
same,MIC,[9],8 µM
same,Hemolysis,[10],71%
"indolicidin (ILPWKWPWWPWRR; ends and bridges not checked; UniProt P33046 131-143, looked up) [AMP which can act intracellularly]",RNA band shift in gel retardation,[16],did cause a similar band shift
magainin II,RNA band shift in gel retardation,[16],did not cause a band shift
